Assay results as given in ChEMBL document CHEMBL1201862, “PubChem BioAssay data set” (2004).
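96-well plates; 48 h exposure; 5 concentrations. Endpoints by linear interpolation between flanking doses. Not reached: highest tested concentration assigned. GI50 marks 50% less growth.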 The source made the active and inactive calls. Rule as the data show it: active = GI50 up to about 1.1 µM and inactive = higher.

Columns and labels:
Assay in all cases: NCI anticancer screen, dose series, 48 h
[1] = test system: Malme-3M
[2] = test system: KM12
[3] = test system: 786-0
[4] = test system: TK-10
[5] = test system: DU-145
[6] = test system: MOLT-4
[7] = test system: OVCAR-4
[8] = test system: OVCAR-3
[9] = test system: SF-295
[10] = test system: HL-60
[11] = test system: SK-MEL-5
[12] = test system: HCT-116
[13] = test system: HT-29
[14] = test system: MDA-MB-435
[15] = test system: U-251
[16] = test system: UACC-257
[17] = test system: CAKI-1
[18] = test system: LOX IMVI
[19] = test system: OVCAR-5
[20] = test system: NCI-H460

Structure (SMILES)	GI50 [1]	GI50 [2]	GI50 [3]	GI50 [4]	GI50 [5]	GI50 [6]	GI50 [7]	GI50 [8]	GI50 [9]	GI50 [10]	GI50 [11]	GI50 [12]	GI50 [13]	GI50 [14]	GI50 [15]	GI50 [16]	GI50 [17]	GI50 [18]	GI50 [19]	GI50 [20]
COc1ccc2c(c1)CCCc1c-2nc2ccccc2c1N	14.1 µM (inactive)	14 µM (inactive)	6.11 µM (inactive)	10.7 µM (inactive)	13.4 µM (inactive)	8.59 µM (inactive)	12.6 µM (inactive)	12.9 µM (inactive)	11.1 µM (inactive)	13.9 µM (inactive)	3.72 µM (inactive)	5.81 µM (inactive)	3.3 µM (inactive)	12 µM (inactive)	12.7 µM (inactive)	2.45 µM (inactive)	9.02 µM (inactive)	8.57 µM (inactive)	10.2 µM (inactive)	4.44 µM (inactive)
CCCCCCCCCCCCCCCCOCC(O)CO (stereo not given)	19.2 µM (inactive)	17.4 µM (inactive)	18.4 µM (inactive)	15.2 µM (inactive)	18.9 µM (inactive)	13.3 µM (inactive)	21 µM (inactive)	20.7 µM (inactive)	16.4 µM (inactive)	7.18 µM (inactive)	27.5 µM (inactive)	19.4 µM (inactive)	17.3 µM (inactive)	17.4 µM (inactive)	19 µM (inactive)	19.1 µM (inactive)	17.6 µM (inactive)	17.8 µM (inactive)	19.8 µM (inactive)	19.9 µM (inactive)
N=C(N)NS(=O)(=O)c1ccc(Nc2c3ccccc3nc3c(C(=O)NCCO)cccc23)cc1	0.156 µM (active)	0.177 µM (active)	0.191 µM (active)	0.281 µM (active)	0.214 µM (active)	0.0885 µM (active)	0.261 µM (active)	0.142 µM (active)	0.263 µM (active)	0.293 µM (active)	0.142 µM (active)	0.223 µM (active)	0.16 µM (active)	0.173 µM (active)	0.184 µM (active)	0.243 µM (active)	0.205 µM (active)	0.143 µM (active)	0.244 µM (active)	0.127 µM (active)
CC(=O)c1cc(I)c(O)c2ncccc12	3.45 µM (inactive)	> 10 µM (inactive)	3.03 µM (inactive)	9.46 µM (inactive)	3.3 µM (inactive)	2.42 µM (inactive)	2.94 µM (inactive)	3.21 µM (inactive)	4.07 µM (inactive)	2.03 µM (inactive)	2.29 µM (inactive)	2.94 µM (inactive)	4.42 µM (inactive)	4.09 µM (inactive)	3.97 µM (inactive)	2.66 µM (inactive)	3.08 µM (inactive)	3.85 µM (inactive)	> 10 µM (inactive)	4.06 µM (inactive)
O=C(Cn1cc(Br)c(=O)[nH]c1=O)c1ccc(-c2ccccc2)cc1	> 26.5 µM (inactive)	> 14.6 µM (inactive)	10.5 µM (inactive)	> 30.8 µM (inactive)	> 16.1 µM (inactive)	> 13 µM (inactive)	> 15.8 µM (inactive)	> 100 µM (inactive)	10.9 µM (inactive)	> 17.4 µM (inactive)	> 15.6 µM (inactive)	> 16 µM (inactive)	> 17 µM (inactive)	> 16.8 µM (inactive)	5.31 µM (inactive)	15.9 µM (inactive)	6 µM (inactive)	> 15.4 µM (inactive)	> 14.4 µM (inactive)	> 15.9 µM (inactive)
O=C(NCCNCCCNC(=O)c1cc(-c2ccccc2)nc2ccccc12)c1cccc(OCc2ccccc2)c1OCc1ccccc1	2.07 µM (inactive)	1.83 µM (inactive)	1.71 µM (inactive)	1.77 µM (inactive)	1.81 µM (inactive)	1.85 µM (inactive)	1.64 µM (inactive)	1.95 µM (inactive)	1.64 µM (inactive)	1.6 µM (inactive)	1.71 µM (inactive)	1.71 µM (inactive)	1.63 µM (inactive)	1.68 µM (inactive)	1.94 µM (inactive)	1.83 µM (inactive)	1.61 µM (inactive)	1.57 µM (inactive)	1.91 µM (inactive)	2.13 µM (inactive)
CCOP(=O)(CCCC(O)CNc1nc(N)nc(Cl)c1/N=N/c1ccc(Cl)cc1)OCC (stereo not given)	7.64 µM (inactive)	11.2 µM (inactive)	5.27 µM (inactive)	3.67 µM (inactive)	6.14 µM (inactive)	3.24 µM (inactive)	4.45 µM (inactive)	5.73 µM (inactive)	7.46 µM (inactive)	1.75 µM (inactive)	4.66 µM (inactive)	8.28 µM (inactive)	9.73 µM (inactive)	5.85 µM (inactive)	8.57 µM (inactive)	5.38 µM (inactive)	3.02 µM (inactive)	3.75 µM (inactive)	10.9 µM (inactive)	11.1 µM (inactive)
Cc1cc(-n2c(/C=C/c3ccc(Cl)cc3)nc3cc(Cl)ccc3c2=O)on1	24 µM (inactive)	> 50 µM (inactive)	1.47 µM (inactive)	12.2 µM (inactive)	> 50 µM (inactive)	> 50 µM (inactive)	1.25 µM (inactive)	10.1 µM (inactive)	22 µM (inactive)	> 50 µM (inactive)	16.4 µM (inactive)	6.1 µM (inactive)	> 50 µM (inactive)	14.2 µM (inactive)	6.4 µM (inactive)	> 50 µM (inactive)	> 50 µM (inactive)	15.1 µM (inactive)	> 50 µM (inactive)	5.12 µM (inactive)
O=C(O)C1C(Br)(c2ccccc2)C1(Br)c1ccccc1 (stereo not given)	35.6 µM (inactive)	33.4 µM (inactive)	32.3 µM (inactive)	33.7 µM (inactive)	> 100 µM (inactive)	15.2 µM (inactive)	28.7 µM (inactive)	50.4 µM (inactive)	37.9 µM (inactive)	12.4 µM (inactive)	28.8 µM (inactive)	39.7 µM (inactive)	20.7 µM (inactive)	41.2 µM (inactive)	27.6 µM (inactive)	48.9 µM (inactive)	23.9 µM (inactive)	22.2 µM (inactive)	58.9 µM (inactive)	14.2 µM (inactive)
CCCCCCC/C=C1\CCC(CN(C)C)C1=O (stereo not given)	10.8 µM (inactive)	4.07 µM (inactive)	1.76 µM (inactive)	7.48 µM (inactive)	14.7 µM (inactive)	2.47 µM (inactive)	16.6 µM (inactive)	9.38 µM (inactive)	16.3 µM (inactive)	3.02 µM (inactive)	18.7 µM (inactive)	7.23 µM (inactive)	14.6 µM (inactive)	5.66 µM (inactive)	17.5 µM (inactive)	15.1 µM (inactive)	16.3 µM (inactive)	6.85 µM (inactive)	19.8 µM (inactive)	19.1 µM (inactive)
CC1CCC2(CC1)NC1=C(CC(C)CC1)C1=C2CC(C)CC1 (stereo not given)	26.9 µM (inactive)	18.1 µM (inactive)	19.5 µM (inactive)	26.5 µM (inactive)	38.3 µM (inactive)	7.14 µM (inactive)	22.2 µM (inactive)	17.6 µM (inactive)	18.1 µM (inactive)	14.4 µM (inactive)	12.1 µM (inactive)	14.8 µM (inactive)	16.7 µM (inactive)	> 10 µM (inactive)	18.4 µM (inactive)	25.3 µM (inactive)	22 µM (inactive)	18.3 µM (inactive)	18.7 µM (inactive)	23.8 µM (inactive)
CC(=O)O[C@H]1[C@H](OC(=O)CC(C)(O)CC(=O)O)C[C@]2(C)C3=C(CCC2C1(C)C)[C@]1(C)CC[C@H]([C@H]2CC[C@H](C(C)(C)O)OC2O)[C@@]1(C)[C@@H](O)C3 (stereo not given in full)	23.7 µM (inactive)	19.7 µM (inactive)	18.4 µM (inactive)	30.9 µM (inactive)	25.8 µM (inactive)	19 µM (inactive)	19.7 µM (inactive)	16.1 µM (inactive)	18.3 µM (inactive)	17.7 µM (inactive)	17.2 µM (inactive)	20.7 µM (inactive)	16.3 µM (inactive)	19.1 µM (inactive)	19.8 µM (inactive)	19.4 µM (inactive)	16.9 µM (inactive)	18.5 µM (inactive)	17.3 µM (inactive)	15.3 µM (inactive)
O=C(O)Cc1cccc2c(=O)c3cccc([N+](=O)[O-])c3[nH]c12	29.4 µM (inactive)	85.1 µM (inactive)	> 100 µM (inactive)	> 100 µM (inactive)	58.5 µM (inactive)	> 100 µM (inactive)	38.1 µM (inactive)	99.8 µM (inactive)	> 100 µM (inactive)	> 100 µM (inactive)	44.7 µM (inactive)	> 100 µM (inactive)	> 100 µM (inactive)	> 100 µM (inactive)	38.9 µM (inactive)	> 100 µM (inactive)	> 100 µM (inactive)	48.2 µM (inactive)	36.5 µM (inactive)	> 100 µM (inactive)
O=c1cccc2n1C[C@H]1CNC[C@H]2C1	> 100 µM (inactive)	> 100 µM (inactive)	> 100 µM (inactive)	> 100 µM (inactive)	> 100 µM (inactive)	> 100 µM (inactive)	> 100 µM (inactive)	> 100 µM (inactive)	> 100 µM (inactive)	> 100 µM (inactive)	> 100 µM (inactive)	> 100 µM (inactive)	> 100 µM (inactive)	> 100 µM (inactive)	> 100 µM (inactive)	> 100 µM (inactive)	> 100 µM (inactive)	> 100 µM (inactive)	> 100 µM (inactive)	> 100 µM (inactive)
